Measurements reported in PubChem BioAssay (NCI).
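The compound was tested at five concentrations on cells cultured in 96-well plates, with a 48-hour exposure period. At the GI50, growth is halved. TGI denotes the concentration required for complete inhibition of growth.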

How the values were obtained:
Assay in all cases: NCI tumour cell line growth inhibition, 48 h
[1] = tested on: 786-0 renal
[2] = tested on: A498 renal
[3] = tested on: A549 NSCLC
[4] = tested on: ACHN renal
[5] = tested on: BT-549 breast
[6] = tested on: CAKI-1 renal
[7] = tested on: CCRF-CEM leukemia
[8] = tested on: COLO 205 colon
[9] = tested on: DU-145 prostate
[10] = tested on: EKVX NSCLC
[11] = tested on: HCC-2998 colon
[12] = tested on: HCT-116 colon
[13] = tested on: HCT-15 colon
[14] = tested on: HL-60(TB) leukemia
[15] = tested on: HOP-62 NSCLC
[16] = tested on: HOP-92 NSCLC
[17] = tested on: HS 578T breast
[18] = tested on: HT29 colon
[19] = tested on: IGROV1 ovarian
[20] = tested on: K-562 leukemia
[21] = tested on: KM12 colon
[22] = tested on: LOX IMVI melanoma
[23] = tested on: M14 melanoma
[24] = tested on: MALME-3M melanoma
[25] = tested on: MCF7 breast
[26] = tested on: MDA-MB-231 breast
[27] = tested on: MDA-MB-435
[28] = tested on: NCI-H226 lung
[29] = tested on: NCI-H23 lung
[30] = tested on: NCI-H460 lung
[31] = tested on: NCI-H522 lung
[32] = tested on: NCI/ADR-RES ovarian
[33] = tested on: OVCAR-3 ovarian
[34] = tested on: OVCAR-4 ovarian
[35] = tested on: OVCAR-5 ovarian
[36] = tested on: OVCAR-8 ovarian
[37] = tested on: PC-3 prostate
[38] = tested on: RPMI-8226 leukemia
[39] = tested on: RXF 393 renal
[40] = tested on: SF-268 CNS
[41] = tested on: SF-295 CNS
[42] = tested on: SF-539 CNS
[43] = tested on: SK-MEL-2 melanoma
[44] = tested on: SK-MEL-28 melanoma
[45] = tested on: SK-MEL-5 melanoma
[46] = tested on: SK-OV-3 ovarian
[47] = tested on: SN12C renal
[48] = tested on: SNB-19 CNS
[49] = tested on: SNB-75 CNS
[50] = tested on: SR leukemia
[51] = tested on: SW-620 colon
[52] = tested on: T-47D breast
[53] = tested on: TK-10 renal
[54] = tested on: U251 CNS
[55] = tested on: UACC-257 melanoma
[56] = tested on: UACC-62 melanoma
[57] = tested on: UO-31 renal

Question: How did the GI50 [1] turn out when `O=C1c2cccc3c(N4CCN(c5ccc6c7c(cccc57)C(=O)N(CCN5CCNCC5)C6=O)CC4)ccc(c23)C(=O)N1CCN1CCNCC1` was run?
Answer: 1.84 µM

Question: And the TGI [1]?
Answer: 4.32 µM

Question: And the GI50 [2]?
Answer: 17.3 µM

Question: What about the TGI [2] of the same molecule?
Answer: 36.4 µM

Question: What about the GI50 [3] of the same molecule?
Answer: 16.3 µM

Question: What about the TGI [3] of the same molecule?
Answer: 35.6 µM

Question: And the GI50 [4]?
Answer: 7.23 µM

Question: What about the TGI [4] of the same molecule?
Answer: 22.5 µM

Question: What about the GI50 [5] of the same molecule?
Answer: 19 µM

Question: And the TGI [5]?
Answer: 39.3 µM

Question: What about the GI50 [6] of the same molecule?
Answer: 14.7 µM

Question: And the TGI [6]?
Answer: 33 µM

Question: What about the GI50 [7] of the same molecule?
Answer: 3.09 µM

Question: And the TGI [7]?
Answer: 18.4 µM

Question: What about the GI50 [8] of the same molecule?
Answer: 8.87 µM

Question: And the TGI [8]?
Answer: > 100 µM

Question: What about the GI50 [9] of the same molecule?
Answer: 14.1 µM

Question: And the TGI [9]?
Answer: 40.6 µM

Question: What about the GI50 [10] of the same molecule?
Answer: 20.9 µM

Question: What about the TGI [10] of the same molecule?
Answer: 47.1 µM

Question: What about the GI50 [11] of the same molecule?
Answer: 5.63 µM

Question: What about the TGI [11] of the same molecule?
Answer: 20.9 µM

Question: And the GI50 [12]?
Answer: 3.8 µM

Question: What about the TGI [12] of the same molecule?
Answer: 42.9 µM

Question: What about the GI50 [13] of the same molecule?
Answer: 11.3 µM

Question: What about the TGI [13] of the same molecule?
Answer: 31.3 µM

Question: What about the GI50 [14] of the same molecule?
Answer: 4.19 µM

Question: And the TGI [14]?
Answer: 20.6 µM

Question: And the GI50 [15]?
Answer: 7.96 µM

Question: What about the TGI [15] of the same molecule?
Answer: 27.7 µM

Question: What about the GI50 [16] of the same molecule?
Answer: 7.31 µM

Question: What about the TGI [16] of the same molecule?
Answer: 29 µM

Question: And the GI50 [17]?
Answer: 17.2 µM

Question: What about the TGI [17] of the same molecule?
Answer: 44.8 µM

Question: And the GI50 [18]?
Answer: 3.91 µM

Question: And the TGI [18]?
Answer: > 100 µM

Question: What about the GI50 [19] of the same molecule?
Answer: 6.32 µM

Question: What about the TGI [19] of the same molecule?
Answer: 29.4 µM

Question: And the GI50 [20]?
Answer: 2.78 µM

Question: And the TGI [20]?
Answer: 8.29 µM

Question: What about the GI50 [21] of the same molecule?
Answer: 12 µM

Question: What about the TGI [21] of the same molecule?
Answer: 30.5 µM

Question: And the GI50 [22]?
Answer: 6.57 µM

Question: And the TGI [22]?
Answer: 25.4 µM

Question: And the GI50 [23]?
Answer: 15 µM

Question: What about the TGI [23] of the same molecule?
Answer: 37.2 µM

Question: And the GI50 [24]?
Answer: 17.5 µM

Question: And the TGI [24]?
Answer: 40 µM

Question: And the GI50 [25]?
Answer: 11.2 µM

Question: And the TGI [25]?
Answer: 41.1 µM

Question: What about the GI50 [26] of the same molecule?
Answer: 10.4 µM

Question: And the TGI [26]?
Answer: 25.1 µM

Question: What about the GI50 [27] of the same molecule?
Answer: 13.2 µM

Question: What about the TGI [27] of the same molecule?
Answer: 34.2 µM

Question: What about the GI50 [28] of the same molecule?
Answer: 12.4 µM

Question: What about the TGI [28] of the same molecule?
Answer: 29 µM

Question: And the GI50 [29]?
Answer: 11 µM

Question: What about the TGI [29] of the same molecule?
Answer: 26.3 µM

Question: What about the GI50 [30] of the same molecule?
Answer: 12.5 µM

Question: And the TGI [30]?
Answer: 80 µM

Question: And the GI50 [31]?
Answer: 18 µM

Question: What about the TGI [31] of the same molecule?
Answer: 44.2 µM

Question: What about the GI50 [32] of the same molecule?
Answer: 13.8 µM

Question: What about the TGI [32] of the same molecule?
Answer: 32.6 µM

Question: What about the GI50 [33] of the same molecule?
Answer: 20.3 µM

Question: What about the TGI [33] of the same molecule?
Answer: 42.1 µM

Question: What about the GI50 [34] of the same molecule?
Answer: 18.3 µM

Question: What about the TGI [34] of the same molecule?
Answer: 42.3 µM

Question: And the GI50 [35]?
Answer: 15.1 µM

Question: And the TGI [35]?
Answer: 34.1 µM

Question: And the GI50 [36]?
Answer: 10.9 µM

Question: What about the TGI [36] of the same molecule?
Answer: 41.5 µM

Question: What about the GI50 [37] of the same molecule?
Answer: 13.5 µM

Question: And the TGI [37]?
Answer: 32.4 µM

Question: What about the GI50 [38] of the same molecule?
Answer: 2.45 µM

Question: And the TGI [38]?
Answer: 8.55 µM

Question: And the GI50 [39]?
Answer: 16.8 µM

Question: And the TGI [39]?
Answer: 33 µM

Question: What about the GI50 [40] of the same molecule?
Answer: 16.8 µM

Question: What about the TGI [40] of the same molecule?
Answer: 70.7 µM

Question: What about the GI50 [41] of the same molecule?
Answer: 15.5 µM

Question: What about the TGI [41] of the same molecule?
Answer: 35.7 µM

Question: What about the GI50 [42] of the same molecule?
Answer: 13 µM

Question: And the TGI [42]?
Answer: 34.1 µM

Question: And the GI50 [43]?
Answer: 24.7 µM

Question: What about the TGI [43] of the same molecule?
Answer: 67.5 µM

Question: And the GI50 [44]?
Answer: 17.1 µM

Question: And the TGI [44]?
Answer: 34.4 µM

Question: What about the GI50 [45] of the same molecule?
Answer: 16.1 µM

Question: What about the TGI [45] of the same molecule?
Answer: 53.4 µM

Question: And the GI50 [46]?
Answer: 25.7 µM

Question: And the TGI [46]?
Answer: 82.9 µM

Question: And the GI50 [47]?
Answer: 7.46 µM

Question: And the TGI [47]?
Answer: 23.2 µM

Question: What about the GI50 [48] of the same molecule?
Answer: 16.1 µM

Question: What about the TGI [48] of the same molecule?
Answer: 61.6 µM

Question: And the GI50 [49]?
Answer: 17.4 µM

Question: What about the TGI [49] of the same molecule?
Answer: 33.8 µM

Question: And the GI50 [50]?
Answer: 2.64 µM

Question: What about the TGI [50] of the same molecule?
Answer: 8.66 µM

Question: And the GI50 [51]?
Answer: 7.64 µM

Question: What about the TGI [51] of the same molecule?
Answer: 77.7 µM

Question: And the GI50 [52]?
Answer: > 100 µM

Question: And the TGI [52]?
Answer: > 100 µM

Question: What about the GI50 [53] of the same molecule?
Answer: 14.7 µM

Question: What about the TGI [53] of the same molecule?
Answer: 33.4 µM

Question: What about the GI50 [54] of the same molecule?
Answer: 16.8 µM

Question: What about the TGI [54] of the same molecule?
Answer: 35.7 µM

Question: And the GI50 [55]?
Answer: 19.5 µM

Question: What about the TGI [55] of the same molecule?
Answer: 37.9 µM

Question: And the GI50 [56]?
Answer: 15 µM

Question: And the TGI [56]?
Answer: 30.2 µM

Question: And the GI50 [57]?
Answer: 12.8 µM

Question: And the TGI [57]?
Answer: 33 µM
